Consider 2 molecules from patent US20060121112A1, “Topiramate pharmaceutical composition” (Elan Corporation, plc, priority 2004, published 2006).

The conditions of data set [1]: cited from earlier work.
The nature of data set [2]: Pharmacoscintigraphy regional absorption biostudy with Enterion site-specific delivery capsule, topiramate plasma concentrations. It is filed as in vivo, human. Conditions: for Relative Bioavailability (%) Based on AUCinf: 200 mg topiramate API, Enterion capsule, healthy volunteers; for Relative Bioavailability (%) Based on AUCinf / Relative Bioavailability (%) Based on AUClast: vs Trt A; for Lambda / tmax / Relative Bioavailability (%) Based on AUClast / AUCinf / Cmax / half-life / AUC(0-inf) / AUC(0-t): 200 mg; for half-life: read-out: t½ (converted). On the procedure:
A rational approach to obtain detailed information about how well topiramate is absorbed from the key residence areas of the gastrointestinal tract was conducted using the Enterion® site-specific delivery capsule, which is the subject of U.S. Pat. No. 6,632,216 which is incorporated herein by reference. The Enterion® site-specific delivery capsule is an easy to use non-invasive methodology for assessing regional drug absorption from the gastrointestinal tract. The capsule is 35mm in length and 10-12 mm in diameter and is capable of delivering solutions, suspensions or powders to specific sites. […] The capsules contain a drug chamber with a wide port, and therefore loading of all types of drug formulations into the capsule is relatively straightforward. Capsule activation is confirmed by means of a signal, which is emitted from the capsule when activation occurs and is relayed back to the activation unit.
A pharmacoscintigraphy study of topiramate was conducted at Pharmaceutical Profiles, Nottingham, UK utilizing their Enterion® site-specific delivery capsule technology. This study was designed to obtain detailed information about how well topiramate is absorbed from the key residence areas of the gastrointestinal tract. The examples below are a result of a biostudy that was a randomized, 4-treatment, 4-period study, conducted in 12 healthy volunteers. The test treatments administered using an Enterion® capsule and were as follows: Trt B represents 200 mg topiramate API delivered to the proximal small bowel (PSB), Trt C represents 200 mg topiramate API delivered to the distal small bowel (DSB), Trt D represents 200 mg topiramate API delivered to the colon. The reference treatment administered was Trt A which represents 200 mg topiramate as the commercial immediate release reference formulation, Topamax™. Topiramate plasma concentrations were measured in this study.
Analysis of plasma samples for topiramate was carried out in accordance with Bioanalytical Services Test Method number TM154. The method involves solid phase extraction of topiramate using Oasis HLB extraction cartridges. Topiramate is analysed using LC-MS/MS.
The standard curves for the analytical runs in the study covered the concentration range of 10-1000 ng/mL with a limit of quantitation of 10 ng/mL. All samples were diluted 1:10 prior to analysis.
The following parameters were derived from the plasma concentration data: individual and mean blood drug concentration levels, individual and mean peak levels, Cmax; individual and mean AUClast and AUCinf; individual and mean time to peak concentration, tmax, relative bioavailability of test compared to alternative formulation, Frel (%).

The conditions of data set [3]: cited from earlier work. The source holds these as a separate data set.
Where [4] appears, read: Trt B, proximal small bowel (PSB).
[5] abbreviates: Trt B, proximal small bowel (PSB), plasma.
Setting [6] is: Trt C, distal small bowel (DSB).
Where [7] appears, read: human, plasma, Trt B, proximal small bowel (PSB).
[8] abbreviates: human, plasma, Trt C, distal small bowel (DSB).
The mark [9] stands for this setting: human, plasma, other: Enterion capsule, delivered to the colon, Trt D, colon, plasma.

Structures can show the parent of a compound that is named as a salt. Where two headings read alike, the source gives them in different places. Marks after values point to notes of the source that are not given here.

In the case of `CC(C)(N)Cc1ccccc1` [Phentermine hydrochloride, 1,1 -Dimethyl-2-phenethylamine hydrochloride], the solubility result was “slightly soluble” in data set [1] (in chloroform); “insoluble” in data set [1] (in ether); “soluble” in data set [1] (in water and lower alcohols).

As for `CC1(C)O[C@@H]2[C@@H](CO[C@@]3(COS(N)(=O)=O)OC(C)(C)O[C@@H]23)O1` [Topiramate, topiramate], the “Relative Bioavailability (%) Based on AUCinf” value was 120.88 ± 20.20 % in data set [2] (setting [4]); 120.99 ± 25.31$ % in data set [2] (setting [6]); 111.85 ± 19.41^ % in data set [2] (Trt D, colon). The Lambda in data set [2] (setting [4]) was 0.02 ± 0.01˜ h^−1; in data set [2] (setting [6]), 0.03 ± 0.01 h⁻¹; in data set [2] (Trt D, colon), 0.03 ± 0.01* h^−1. Further, the tmax turned out to be 2.08 ± 1.08 h in data set [2] (setting [4]); 3.64 ± 4.20 h in data set [2] (setting [6]); 11.85 ± 7.44 h in data set [2] (Trt D, colon); 2.1 ± 1.1 h in data set [2] (human, plasma, Trt B, proximal small bowel (PSB), read-out: tmax); 3.6 ± 4.2 h in data set [2] (human, plasma, Trt C, distal small bowel (DSB), read-out: tmax); 11.8 ± 7.4 h in data set [2] (human, plasma, other: Enterion capsule, delivered to the colon, Trt D, colon, read-out: tmax). In addition, the “Relative Bioavailability (%) Based on AUClast” value is given as 113.06 ± 19.46 % in data set [2] (setting [4]); 125.69 ± 27.18˜ % in data set [2] (setting [6]); 107.14 ± 22.73˜ % in data set [2] (Trt D, colon). The AUCinf in data set [2] (setting [5]) was 192140.44 ± 33798.87˜ ng/mL · h; in data set [2] (Trt C, distal small bowel (DSB), plasma), 193203.21 ± 57012.26 ng·h/mL; in data set [2] (Trt D, colon, plasma) it was 181462.53 ± 46104.28 ng·h/mL. The Cmax turned out to be 5255.66 ± 1870.32 ng/mL in data set [2] (setting [5]); 3878.07 ± 1267.71 ng/mL in data set [2] (Trt D, colon, plasma); 5260 ± 1870 ng/mL in data set [2] (human, plasma, Trt B, proximal small bowel (PSB), plasma, read-out: Cmax); 4970 ± 1200 ng/mL in data set [2] (human, plasma, Trt C, distal small bowel (DSB), plasma, read-out: Cmax); 3880 ± 1270 ng/mL in data set [2] (human, plasma, other: Enterion capsule, delivered to the colon, Trt D, colon, plasma, read-out: Cmax). Besides, the enhanced bioavailability entry in data set [2] (administered in the small or large intestine as compared to oral immediate release tablets) was “approximately 20%”. Further, the half-life was 32.7 ± 9.7 h in data set [2] (setting [7]); 24.5 ± 6.18 h in data set [2] (setting [8]); 24.9 ± 5.2 h in data set [2] (human, plasma, other: Enterion capsule, delivered to the colon, Trt D, colon). The results for the AUC(0-inf) in data set [2] (setting [7]), in data set [2] (setting [8]) and in data set [2] (setting [9]) were 192 ± 33.8 µg·h/mL, 193 ± 57 µg·h/mL and 181 ± 46.1 µg·h/mL, respectively. Moreover, the area under the curve AUC(0-t) was found to be 150 ± 37.9 µg·h/mL in data set [2] (setting [7]), 160 ± 38.5 µg·h/mL in data set [2] (setting [8]) and 140 ± 40.7 µg·h/mL in data set [2] (setting [9]). Further, the “metabolized in the liver” value in data set [3] (P-450 microsomal enzyme system) is 15%. The “time to peak blood levels” value in data set [3] (following a 400 mg oral dose) is given as “about 2 hours”. Also, the Plasma protein binding result in data set [3] (in vivo) was “approximately 15%”. The “excreted unchanged in the urine” value in data set [3] (in vivo) is on record as “about 85%”. Besides, the bioavailability in data set [3] (oral administration) was about 100%.

By Cmax is commonly meant the maximum level reached in the sampled fluid or tissue. What is called AUC(0-inf) is total exposure, with the tail of the curve extrapolated. In general, AUC(0-t) refers to the area under the concentration-time curve up to a stated or last time point. High values mean more exposure, low ones less exposure. Usually bioavailability stands for the share of a dose that reaches the circulation, judged against a reference dose that is usually intravenous.
